Results on 16 compounds are retold here after PubChem BioAssay (NCI).

Molecules are shown by their SMILES.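 Each compound was tested at five concentrations against cells in 96-well plates for 48 hours. TGI denotes the concentration required for complete inhibition of growth.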

The first experiment relates to UACC-257 melanoma. Kind of experiment: NCI anticancer screen, dose series, 48 h.
The compound `O=C(N[C@@H](c1ccccc1)[C@@H](O)C(=O)OCc1ccc([N+](=O)[O-])cc1)c1ccccc1` displayed a TGI greater than 100 µM.
`Cc1ccccc1N/C(=C(/C(Cl)=C(Cl)Cl)[N+](=O)[O-])n1nnc2ccccc21` came in with a TGI greater than 100 µM.
`COc1ccc(-c2csc(Cc3nc4ccccc4c(=O)n3-c3ccc(Cl)cc3)n2)cc1` gave a TGI greater than 100 µM.
For `COc1ccc2[nH]c3c(c2c1)CC(=S)N1CCCC(CC3=O)C1` (centres undefined), the TGI was greater than 100 µM.
On the same count and under the same terms, with `CN(C)CCNC(=O)c1ccc2nc3c(nc2c1)C(=O)c1ccccc1-3` the figure was greater than 100 µM.
On the same count and under the same terms, with `CC1(C)CC(=O)C(C=NC(=O)c2ccncc2)=C(O)C1` the figure was greater than 100 µM.
Same read-out and setting: for `CCOC(=O)CO/N=C1/C(c2c(O)[nH]c3ccccc23)=Nc2ccccc21` the value was greater than 100 µM.

Another experiment concerns HT29 colon. Kind of experiment: NCI anticancer screen, dose series, 48 h.
In turn, `CCCCCCCCCCCCC/C=C/[C@@H](O)[C@H](COC1OC(CO)C(OC2OC(CO)C(O)C(OC3(C(=O)O)CC(O)C(NC(C)=O)C(C(O)C(O)CO)O3)C2O)C(O)C1O)N=[N+]=[N-]` (some centres undefined) yielded a TGI of 58.5 µM.
Still for that read-out and setting: with `COc1ccc2c(c1)C(=O)OCCC2` the figure was greater than 100 µM; with `COc1ccc(-n2cnn3c(=O)c4cn[nH]c4nc23)cc1`, greater than 10 µM.
The compound `CCOC(=O)C1(C/C=C/CBr)CCc2ccccc2C1=O` (centres undefined) gave a TGI of 52.3 µM.
Compound `CCCCSC1=N/C(=C\c2ccco2)C(Cl)=N1` had a TGI greater than 100 µM.
`CN1CCc2c(sc3ncn(C)c(=N)c23)C1` showed a TGI greater than 100 µM.
On to `c1ccc(NN=C(c2ccccn2)c2ccccn2)nc1`, for which the TGI was greater than 100 µM.
The compound `N#Cc1[nH]c(=S)[nH]c1N` had a TGI greater than 100 µM.
On the same count and under the same terms, for `O=C(N[C@@H](c1ccccc1)[C@@H](O)C(=O)OCc1ccc([N+](=O)[O-])cc1)c1ccccc1` the value was greater than 100 µM; for `Cc1ccccc1N/C(=C(/C(Cl)=C(Cl)Cl)[N+](=O)[O-])n1nnc2ccccc21`, 35.5 µM.
Same read-out and setting: with `COc1ccc(-c2csc(Cc3nc4ccccc4c(=O)n3-c3ccc(Cl)cc3)n2)cc1` the figure was greater than 100 µM; with `COc1ccc2[nH]c3c(c2c1)CC(=S)N1CCCC(CC3=O)C1` (centres undefined), greater than 100 µM.
Turning to `CN(C)CCNC(=O)c1ccc2nc3c(nc2c1)C(=O)c1ccccc1-3`, the TGI amounted to 81.5 µM.
Consider `CC1(C)CC(=O)C(C=NC(=O)c2ccncc2)=C(O)C1`, for which the TGI was greater than 100 µM.
Compound `CCOC(=O)CO/N=C1/C(c2c(O)[nH]c3ccccc23)=Nc2ccccc21` showed a TGI greater than 100 µM.

The test system of a further experiment is HOP-62 NSCLC. In words: NCI anticancer screen, dose series, 48 h.
Compound `CCCCCCCCCCCCC/C=C/[C@@H](O)[C@H](COC1OC(CO)C(OC2OC(CO)C(O)C(OC3(C(=O)O)CC(O)C(NC(C)=O)C(C(O)C(O)CO)O3)C2O)C(O)C1O)N=[N+]=[N-]` (some centres undefined) registered a TGI of 46.2 µM.
On the same count and under the same terms, with `COc1ccc2c(c1)C(=O)OCCC2` the figure was greater than 100 µM; with `CCOC(=O)C1(C/C=C/CBr)CCc2ccccc2C1=O` (centres undefined), 30.3 µM.
`COc1cc(C(C)=O)cc(C(=O)N(C(C)C)C(C)C)c1[Si](C)(C)C` yielded a TGI greater than 100 µM.
On the same count and under the same terms, with `CCCCSC1=N/C(=C\c2ccco2)C(Cl)=N1` the figure was greater than 100 µM; with `CN1CCc2c(sc3ncn(C)c(=N)c23)C1`, greater than 100 µM; with `N#Cc1[nH]c(=S)[nH]c1N`, greater than 100 µM.
Still for that read-out and setting: for `O=C(N[C@@H](c1ccccc1)[C@@H](O)C(=O)OCc1ccc([N+](=O)[O-])cc1)c1ccccc1` the value was greater than 100 µM.
Still for that read-out and setting: with `Cc1ccccc1N/C(=C(/C(Cl)=C(Cl)Cl)[N+](=O)[O-])n1nnc2ccccc21` the figure was 30.6 µM.
Take `COc1ccc(-c2csc(Cc3nc4ccccc4c(=O)n3-c3ccc(Cl)cc3)n2)cc1`: the TGI is greater than 100 µM.
Compound `COc1ccc2[nH]c3c(c2c1)CC(=S)N1CCCC(CC3=O)C1` (centres undefined) came in with a TGI greater than 100 µM.
Compound `CN(C)CCNC(=O)c1ccc2nc3c(nc2c1)C(=O)c1ccccc1-3` yielded a TGI greater than 100 µM.
`CC1(C)CC(=O)C(C=NC(=O)c2ccncc2)=C(O)C1`: the TGI is greater than 100 µM.
On the same count and under the same terms, for `CCOC(=O)CO/N=C1/C(c2c(O)[nH]c3ccccc23)=Nc2ccccc21` the value was 46 µM.

Another experiment concerns HOP-92 NSCLC. In words: NCI anticancer screen, dose series, 48 h.
For `CCCCCCCCCCCCC/C=C/[C@@H](O)[C@H](COC1OC(CO)C(OC2OC(CO)C(O)C(OC3(C(=O)O)CC(O)C(NC(C)=O)C(C(O)C(O)CO)O3)C2O)C(O)C1O)N=[N+]=[N-]` (some centres undefined), the TGI was greater than 100 µM.
`COc1ccc2c(c1)C(=O)OCCC2` had a TGI greater than 100 µM.
On the same count and under the same terms, for `COc1ccc(-n2cnn3c(=O)c4cn[nH]c4nc23)cc1` the value was greater than 10 µM; for `COc1cc(C(C)=O)cc(C(=O)N(C(C)C)C(C)C)c1[Si](C)(C)C`, greater than 100 µM; for `CN1CCc2c(sc3ncn(C)c(=N)c23)C1`, greater than 100 µM.
Still for that read-out and setting: for `c1ccc(NN=C(c2ccccn2)c2ccccn2)nc1` the value was greater than 100 µM.
The same measure, in the same setting: for `N#Cc1[nH]c(=S)[nH]c1N` the value was greater than 100 µM; for `O=C(N[C@@H](c1ccccc1)[C@@H](O)C(=O)OCc1ccc([N+](=O)[O-])cc1)c1ccccc1`, greater than 100 µM; for `COc1ccc2[nH]c3c(c2c1)CC(=S)N1CCCC(CC3=O)C1` (centres undefined), greater than 100 µM.
For `CN(C)CCNC(=O)c1ccc2nc3c(nc2c1)C(=O)c1ccccc1-3`, the TGI is greater than 100 µM.
In turn, `CC1(C)CC(=O)C(C=NC(=O)c2ccncc2)=C(O)C1` gave a TGI greater than 100 µM.
In turn, `CCOC(=O)CO/N=C1/C(c2c(O)[nH]c3ccccc23)=Nc2ccccc21` gave a TGI of 63.3 µM.

The next experiment has as its system OVCAR-5 ovarian. Kind of experiment: NCI anticancer screen, dose series, 48 h.
`CCCCCCCCCCCCC/C=C/[C@@H](O)[C@H](COC1OC(CO)C(OC2OC(CO)C(O)C(OC3(C(=O)O)CC(O)C(NC(C)=O)C(C(O)C(O)CO)O3)C2O)C(O)C1O)N=[N+]=[N-]` (some centres undefined) registered a TGI greater than 100 µM.
Consider `COc1ccc2c(c1)C(=O)OCCC2`, for which the TGI was greater than 100 µM.
Still for that read-out and setting: for `COc1ccc(-n2cnn3c(=O)c4cn[nH]c4nc23)cc1` the value was greater than 10 µM.
Same read-out and setting: for `CCOC(=O)C1(C/C=C/CBr)CCc2ccccc2C1=O` (centres undefined) the value was 70.2 µM; for `CCCCSC1=N/C(=C\c2ccco2)C(Cl)=N1`, greater than 100 µM.
For `CN1CCc2c(sc3ncn(C)c(=N)c23)C1`, the TGI was greater than 100 µM.
Consider `c1ccc(NN=C(c2ccccn2)c2ccccn2)nc1`, for which the TGI is greater than 100 µM.
`N#Cc1[nH]c(=S)[nH]c1N` yielded a TGI greater than 100 µM.
`O=C(N[C@@H](c1ccccc1)[C@@H](O)C(=O)OCc1ccc([N+](=O)[O-])cc1)c1ccccc1`: the TGI was greater than 100 µM.
Still for that read-out and setting: with `Cc1ccccc1N/C(=C(/C(Cl)=C(Cl)Cl)[N+](=O)[O-])n1nnc2ccccc21` the figure was 33.6 µM; with `COc1ccc(-c2csc(Cc3nc4ccccc4c(=O)n3-c3ccc(Cl)cc3)n2)cc1`, 62.1 µM; with `COc1ccc2[nH]c3c(c2c1)CC(=S)N1CCCC(CC3=O)C1` (centres undefined), greater than 100 µM.
Still for that read-out and setting: with `CN(C)CCNC(=O)c1ccc2nc3c(nc2c1)C(=O)c1ccccc1-3` the figure was greater than 100 µM; with `CC1(C)CC(=O)C(C=NC(=O)c2ccncc2)=C(O)C1`, greater than 100 µM.
On the same count and under the same terms, for `CCOC(=O)CO/N=C1/C(c2c(O)[nH]c3ccccc23)=Nc2ccccc21` the value was greater than 100 µM.

The test system of another experiment is HS 578T breast. Kind of experiment: NCI anticancer screen, dose series, 48 h.
`CCCCCCCCCCCCC/C=C/[C@@H](O)[C@H](COC1OC(CO)C(OC2OC(CO)C(O)C(OC3(C(=O)O)CC(O)C(NC(C)=O)C(C(O)C(O)CO)O3)C2O)C(O)C1O)N=[N+]=[N-]` (some centres undefined) registered a TGI greater than 100 µM.
Compound `COc1ccc2c(c1)C(=O)OCCC2` showed a TGI greater than 100 µM.
Still for that read-out and setting: with `COc1ccc(-n2cnn3c(=O)c4cn[nH]c4nc23)cc1` the figure was greater than 10 µM; with `CCOC(=O)C1(C/C=C/CBr)CCc2ccccc2C1=O` (centres undefined), 94.4 µM.
The compound `COc1cc(C(C)=O)cc(C(=O)N(C(C)C)C(C)C)c1[Si](C)(C)C` had a TGI greater than 100 µM.
On the same count and under the same terms, with `CCCCSC1=N/C(=C\c2ccco2)C(Cl)=N1` the figure was greater than 100 µM.
